Assay: Waters ACQUITY UPLC HSS T3, 0.4 mL/min; A: water + 0.1% formic acid; B: acetonitrile + 0.1% formic acid; gradient (min/%B) 0/5 1.5/5 12/95 14/95 14.01/100 17/100
Conditions: stereoisomer not certain

LC retention time | Structure (SMILES)
1.1 min | O=c1[nH]cnc2[nH]ncc12
0.772 min | C[N+](C)(C)CCCC(=O)[O-]
9.85 min | CCCCCC1OC(=O)C(C(C)CC)N(C)C(=O)C2CCCN2C(=O)C(C(C)C)OC(=O)C(Cc2ccccc2)N(C)C(=O)C(C(C)C)NC(=O)C1C (centres undefined)
4.37 min | COc1cc2c(c(OC)c1CC=C(C)C)CC(c1ccc(O)c3c1OC(C)(C)C=C3)CO2 (centres undefined)

Reference: the RepoRT retention time repository
